Results from patent US20220401574A1, “CARDIOPROTECTIVE MICROBUBBLE-LIPOSOMAL DRUG COMPLEXES” (UNIVERSITY OF PITTSBURGH - OF THE COMMONWEALTH SYSTEM OF …, priority 2019, published 2022).
Marks after values point to notes of the source that are not given here.

How the values were obtained:
[1] = cited from earlier work
[2] = Biodistribution assessment with Cy5.5 as Dox analog; format: in vivo, mice; settings: organs harvested 3.5 hours after treatment, imaging
From the text: To assess bio-distribution of the drug post ultrasound treatment, Cy5.5 was used as a fluorescent Dox analog, injected i.v. as: Cy5.5-NH2, liposomal Cy5.5, liposomal Cy5.5+MB, Cy5.5LPX, and mice were euthanized 3.5 hrs later. Blood, tumor, spleen, kidney, liver, heart, lung, brain, skin on the back, muscle, femur (bone), and foot were imaged post-mortem and measured using a Xenogen IVIS 200 imaging system.
This example determines the fate of liposomal lipids and Dox after in vivo delivery. […]
To further quantify the distribution of Cy5.5-NH2, tumor, spleen, kidney, liver, heart, and lung were wet-weighed and […] of each tissue specimen were homogenized in 200 μL lysis buffer (50 mM HEPES, 50 mM NaCl, 1% Triton X-100, 5 mM EDTA, and 15 mM DTT) using a sonicator homogenizer (Sonicator Ultrasonic Processor XL, Misonix, Farmingdale, N.Y.) in Eppendorf tubes immersed in an ice-water. […]
50 μL supernatant of each specimen was added in black 384 well plates. Cy5.5-NH2 fluorescence intensity of 3 parallel samples of each organ was determined at Ex/Em 680/710 nm using a plate reader (Infinite 200 PRO, Tecan, Männedorf, Switzerland). […]

[3] = test system: MCA 205 murine sarcoma cells; assay: Long-term cell viability, alamaBlue assay; format: cell-based; settings: without US, 24, 48, 72 h
Procedure: (§1) MCA 205 murine sarcoma cells (generously provided by Dr. Walter J. Storkus at the University of Pittsburgh School of Medicine) were cultured in RPMI-1640 (Lonza, Biowhittaker, Basel, Switzerland), supplemented with 10% heat deactivated fetal bovine serum (FBS) and 1% penicillin-streptomycin at 37° C., and sub-cultured every 2 days and used before 8 passage.
Control conditions included cells mixed with free Dox, LDox, DoxLPX, ELPX without US treatment and untreated cells. After 1 h incubation, the wells were replaced with 500 μL fresh media. At 24, 48, and 72 h, the cells were incubated in 500 μL media containing 50 μg/mL alamaBlue® for 1 h. Thereafter, 100 μL media in each well was sampled and assayed on a plate reader (Beckman Coulter, DTX-880 Multimode detector, Brea, Calif.) at a wavelength of λex=530 nm and λem=590 nm. The same volume of media containing alamaBlue® was added in empty wells in the same 24-well plate to be used as the baseline absorbance. The percentage of viability at 24, 48, and 72 h was calculated by normalizing to that of untreated cells. As Dox-induced cytotoxicity takes about 48 hours to manifest, acute cytotoxicity (trypan blue assay) was attributed to ultrasound-microbubble interaction. […]

[4] = test system: MCA 205 murine sarcoma cells; assay: Acute cell viability, trypan blue exclusion assay; format: cell-based; settings: 8 μg/mL, without US
Procedure: as §1
MCA 205 cells were suspended (5×10^4 cells in 500 μL media) in capped sterile polystyrene tubes. One of the following formulations was added to the tubes: DoxLPX, LDox, free Dox, ELPX, LDox+MB (e.g, unconjugated LDox and MB). […] Cell viability was evaluated 30 min later using the trypan blue exclusion assay where controls comprised identical tubes not exposed to US.
Live cells and total cell number were counted on a hemocytometer using an inverted microscope (Motic AE21, Scientific Instrument Company, Campbell, Calif.). Acute cell viability was quantified as the number of the live cells (trypan blue negative) divided by the total cell numbers. Each treatment condition was repeated independently three times.

MCA205 sarcoma = assay: In vivo tumor treatment: tumor growth and survival; set-up: species or system mice; settings: for Median survival time ± standard deviation: US Pulse 3 for MB formulations
Procedure: This example provides in vivo studies were performed using the Pulse 3 US regime. […] Treatments were infused over 15 min via internal jugular indwelling catheter on Days 0, 3, 7, 10.
Murine sarcoma model. The animal protocols were approved by the University of Pittsburgh Institutional Animal Care and Use Committee and conform to the Policy on Human Care and Use of Laboratory Animals. Female mice were used due to their susceptibility to Dox cardiotoxicity. Lipshultz et al., “Assessment of dexrazoxane as a cardioprotectant in doxorubicin-treated children with high-risk acute lymphoblastic leukaemia: long-term follow-up of a prospective, randomised, multicentre trial” Lancet Oncol. […] Eight-week-old female C57BL/6 mice were obtained from Jackson lab and housed in the animal facility of the Division of Laboratory Animal Resources at the University of Pittsburgh.
The pulse was repeated 500 times, with the pulse train repeated every 2.5 s to allow MB reperfusion into the target area. The overall duty cycle was 10%. The spatial peak temporal average intensity was 0.16 W/cm^2. The US treatment was continued for approximately 3-5 minutes after the intravenous MB infusion was completed to achieve complete MB destruction (e.g., ˜12-15 min total sonication time).
Tumor growth was evaluated by high-resolution 3D US imaging of the tumor using automated scanning (Vevo2100, Visualsonics, Ontario, Canada) at 21 MHz with a 0.2-mm step size between cross-sections. Tumor cross-sections were manually outlined and tumor volumes were calculated from 3D reconstructions of the outlined area. This technique can measure subcutaneous tumors with an irregular shape with an accuracy of ±20 mm^3. Tumor growth over time was fit to an exponential curve (y)=X0·e^kt, where X0 represents initial tumor volume, and t stands for time in days. Doubling times (DT) were calculated as DT=(Ln2)/k.
Treatments with various Dox formulations commenced when tumor volume reached 40-90 mm^3. The mice were randomly assigned to 1 of 6 treatment groups.
On the first day of treatment, the tumor bearing mice were anesthetized with 2% isoflurane in oxygen and an indwelling catheter was placed in the internal jugular vein to facilitate multiple intravenous infusions over time. See, FIG. 1B. […] See, FIG. 1B.
Tumor volume and cardiac function were serially evaluated for up to 42 days using ultrasound imaging. Echocardiography was performed every 7 days after the 1st treatment. On day 42, or if tumor volume exceeded 1,600 mm^3 before day 42, the mice were euthanized under deep anesthesia (5% isofluorane). Tumor and heart were harvested, washed with cold saline, then were cryopreserved or fixed with 10% formalin overnight, embedding in paraffin block and sectioning for further histology analysis.

caspase-3 = assay: Caspase-3 activity assay in heart tissue; format: in vivo, mice; settings: heart tissue homogenate
Procedure: Heart tissue was washed twice with cold PBS and lysed in lysis buffer (50 mM HEPES, pH 7.4, with 5 Mm CHAPS, and 5 mM DTT). Tissue lysates were centrifuged at 10,000 rcf for 15 min, and the total protein concentration was measured using a BCA assay kit (Thermo Fisher Scientific, MA). Caspase-3 activity assay was performed in triplicate in 96-well plates. For each protease assay, 200 μL assay buffer (100 mM HEPES, pH 7.2, 10% sucrose, 0.1% CHAPS, 1 Mm Na-EDTA, and 2 mM DTT) containing 50 μM Ac-DEVD-AMC (Enzo life, Farmingdale, N.Y.) was incubated with 50 μg lysate protein at 37° C. for 1 h.
Caspase-3 activity was measured by AMC liberation from Ac-DEVD-AMC substrate at 380/460 nm using a plate reader (Beckman Coulter, DTX-880 Multimode detector, Brea, Calif.). Relative fluorescence of substrate control was subtracted as background emission. Free AMC (Enzo life, NY) was used to make the standard curve: […]

[5] = set-up: risk of cardiotoxicity occurrence: dose or concentration left out as unconfirmed; settings: cited from earlier work
heart tissue = assay: Cardiac histopathology (H&E) and fibrosis analysis (Sirius red/fast green); format: in vivo, mice; settings: for myocardial fibrosis / collagen deposition: Sirius red/fast green staining
Procedure: Routine hematoxylin and eosin (H&E) stained heart tissue slides were made for histologic examination. Sirius red/fast green staining was performed on heart tissue sections post-fixed in paraffin blocks. Twenty-three (23) Images were obtained on an Olympus IX81 microscope interfaced with a digital CCD camera (Olympus DP71) and quantitated using ImageJ 1.5 software.

[6] = test system: left ventricular function; assay: Assessment of cardiac function by serial echocardiography; format: in vivo, mice
Procedure: Two-dimensional short-axis images were obtained using a high-resolution Micro-Ultrasound system (Vevo 2100, VisualSonics Inc.) in B-mode and M-mode from parasternal short-axis view. […] LV mass index was calculated as LV mass/mouse body weight (g) on the day of measurement. […] Tumor volume and cardiac function were serially evaluated for up to 42 days using ultrasound imaging. Echocardiography was performed every 7 days after the 1st treatment. […] Ejection fraction […] and left ventricular (LV) mass index data within each treatment group were compared to that on day 0 (baseline) within the group using a two-tail t-test. The percentage of mice with changes in ejection fraction, fractional shortening and LV mass index, categorized as mild, moderate or severe, was compared between groups using Chi-square test, and differences between two groups were compared using Fisher's exact test. Kaplan-Meier survival curves were compared between groups using the log-rank test for trend.

C[N+]1=C(/C=C/C=C/C=C2/N(CCCCCC(=O)NCCCCCCN)c3ccc4ccccc4c3C2(C)C)C(C)(C)c2c1ccc1ccccc21.Cl.[Cl-] [Cy5.5-NH2, Cyanine5.5-amine]
water solubility [1]: moderate water solubility
acid dissociation constant (pKa) ([1]; primary amine group): higher than 7
ex vivo Cy5.5 fluorescence in organs [2]: noticeable Cy5.5 fluorescence in the heart and skeletal muscle

COc1cccc2c1C(=O)c1c(O)c3c(c(O)c1C2=O)C[C@@](O)(C(=O)CO)C[C@@H]3O[C@H]1C[C@H](N)[C@H](O)[C@H](C)O1 [Dox, Doxorubicin]
cytotoxicity / cell viability ([3]; listed as Free Dox): more cytotoxicity than DoxLPX in the absence of US
cytotoxicity / cell viability ([3]; listed as free Dox): highest cytotoxicity at 24, 48, and 72 h
cell membrane integrity [4]: did not change the cell membrane integrity
Median survival time ± standard deviation (MCA205 sarcoma; 5 mg/kg equiv. Dox i.v., 4 treatments): 28.0 ± 7.5 days
Median survival time ± standard deviation (MCA205 sarcoma; 5 mg/kg equiv. Dox i.v., 4 treatments, listed as free Dox): 28 days
prolongation of median survival (MCA205 sarcoma; as compared to controls): 14%
tumor volume as % of original (baseline) tumor volume (MCA205 sarcoma; by Day 17.5): 610%
Tumor doubling time (MCA205 sarcoma; exponential fit of tumor volume, 5 mg/kg equiv. Dox i.v., 4 treatments): 7.1 ± 1.0**^,# Day
caspase-3 activity in cardiac tissue (caspase-3): higher than that in mice treated with DoxLPX+US
risk of cardiotoxicity occurrence ([5]; clinically): 26%
maximal tolerated cumulative dose ([5]; in vivo): 400-550 mg/m2
myocardial fibrosis / collagen deposition (heart tissue): significantly more areas of patchy myocardial interstitial fibrosis and perivascular fibrosis
myocardial fibrosis / collagen deposition (heart tissue; listed as free Dox): induced moderate myocardial interstitial and perivascular fibrosis
histological damage to heart tissue (heart tissue; hematoxylin/eosin staining, accumulative dosage 20 mg/kg): disorganization of myofibrillar arrays (first left panel of Dox group) and focal cytoplasmic vacuolization
LVIDs, LVIDd change ([6]; Day 14 or Day 21 vs. Day 0): Significant increases
mice with severely increased LV mass index ([6]; Day 21 vs. Day 0): 20.0%
mice with severe reduction in EF ([6]; day 21): 40%
mice with severe reduction in FS ([6]; day 21): 30%
LV mass index change ([6]; vs. Day 0): significantly increased LV mass index on day 14
LV mass over time ([6]; vs. baseline, up to Day 21): significantly greater than baseline by Day 14
ejection fraction (EF) and fractional shortening (FS) over time ([6]; vs. baseline, up to Day 21): progressive decline in ejection fraction (EF) and fractional shortening (FS)
